Residues, ends and D or L forms follow the SMILES beside them.
Tests used:
[1] = Corneal permeability of topical 1% apoEdp eye drops in mice, UPLC-MS of pooled aqueous and vitreous humor; format: in vivo; set-up: key to Meas'd conc. / Total: *: No peak detected
Experimental: The apoEdp peptide (SEQ ID NO:3) is rich in cationic amino acids, and the inventor postulated that it may cross the cornea into the anterior and posterior chambers of the eye. […] Thus, apoEdp can be used for non-invasive treatment of posterior eye diseases.
A one percent (1%) solution comprising apoEdp in PBS was prepared. This solution was applied bilaterally via eyedropper to the eyes of mice (n=4). The mice were sacrificed at 0, 1, 2, or 3 hours after application of the solution, and the eyes were enucleated. The aqueous and vitreous humor from each eye was collected and pooled, mixed with 1 mL of 0.1% formic acid solution, and allowed to stand for 5 minutes. The samples were then filtered with a 0.2 μm filter and analyzed with the Acquity UPLC system (Waters Corp., Milford, Mass.) with mass spectrophotometric detection.
Initially, the mass range for the peptide was scanned several peaks corresponding to different charged states of the peptide were found. These peaks included 484.9 m/z, 604.4 m/z, and 805.6 m/z. The 484.9 peak was used for the analysis because it was the strongest peak. For the UPLC analysis, a 2.1 mm×100 mm×1.7 μm BEH300 C4 column was used. A two-component mobile phase was used with component 1 (C1): 0.1% formic Acid, and Component 2 (C2): Acetonitrile with 0.1% formic acid. The flow rate was 0.2 mL/min and gradient elution was used with a linear gradient (see TABLE 2). Retention time for the peptide was 4.6 minutes.

LRP-1 = LRP-1 expression in high sugar induced hRMECs (Western blot); format: cell-based, human; settings: high sugar induced serum starved hRMECs, 1% apoEdp, 24 hours
Experimental: Using an anti-LRP-1 antibody (human LRP-1; 1:1000, Santa Cruz Biotechnology, CA) and Western blot analysis, selective inhibition of LRP-1 by apoEdp treatment (24 hours) in serum starved hRMECs cells was shown.

occludin = test: Streptozotocin-induced diabetic mice, retinal occludin protein by Western blot; format: in vivo, mouse; settings: 14 days
Experimental: Western Blotting. The hRMECs were harvested in M-PER Mammalian Protein Extraction Reagent (Thermo Fisher Scientific, Inc., Rockford, Ill.) containing protease inhibitor cocktail. The total protein concentration was determined using a BCA protein assay kit (Pierce, Rockford, Ill.). Equal amounts of protein were separated by electrophoresis on 5-20% SDS-polyacrylamide gels and transferred electrophoretically onto nitrocellulose membranes (Amersham, Little Chalfont, UK). […] To ensure the equal loading of protein in each lane, each membrane was stripped and re-probed with an antibody against β-actin, and the chemiluminescence was detected as described previously. After scanning the blots with a flatbed scanner, band intensities were analyzed using ImageJ (NIH) and the relative intensity values were normalized to control values. […]
To investigate the effects on the retinal tight junction protein occludin following topical eye drop (1% apoEdp) or systemic i/p injection (40 mg/kg) of apoEdp, retinas from enucleated mouse eyes were processed to harvest total RNA, and then one-step real-time RT-PCR was performed using mice occludin-specific mRNA expression. […] To correlate the occludin-specific mRNA data at a protein level, total proteins extracted from retinas of different experimental groups (FIG. 10) were analyzed using Western-blot to detect occludin-specific protein expression.

[2] = OD (right eye), 0 h after topical 1% apoEdp
[3] = OD (right eye), 1 h after topical 1% apoEdp
[4] = OD (right eye), 2 h after topical 1% apoEdp
[5] = OD (right eye), 3 h after topical 1% apoEdp
[6] = OS (left eye), 1 h after topical 1% apoEdp
[7] = OS (left eye), 2 h after topical 1% apoEdp
[8] = OS (left eye), 3 h after topical 1% apoEdp

For CC(=O)N[C@@H](CC(C)C)C(=O)N[C@@H](CCCNC(=N)N)C(=O)N[C@@H](CCCCN)C(=O)N[C@@H](CC(C)C)C(=O)N[C@@H](CCCNC(=N)N)C(=O)N[C@@H](CCCCN)C(=O)N[C@@H](CCCNC(=N)N)C(=O)N[C@@H](CC(C)C)C(=O)N[C@@H](CC(C)C)C(=O)N[C@@H](CC(C)C)C(=O)N[C@@H](CCCNC(=N)N)C(=O)N[C@@H](CCCCN)C(=O)N[C@@H](CC(C)C)C(=O)N[C@@H](CCCNC(=N)N)C(=O)N[C@@H](CCCCN)C(=O)N[C@@H](CCCNC(=N)N)C(=O)N[C@@H](CC(C)C)C(=O)N[C@@H](CC(C)C)C(N)=O [apoEdp, Ac-LRKLRKRLLLRKLRKRLL-amide] (Ac-LRKLRKRLLLRKLRKRLL-NH2), the “Meas'd conc.” value [1, 2] was “*”, the Total [1, 2] was “*” and the “Meas'd conc.” value [1, 3] was 0.022 µg/mL. For the same compound, the Total [1, 3] was 22.2 ng, the “Meas'd conc.” value [1, 4] was 0.006 µg/mL and the Total [1, 4] was 5.9 ng. For the same compound, the “Meas'd conc.” value [1, 5] was 0.036 µg/mL, the Total [1, 5] was 36.3 ng and the Total ([1]; OS (left eye), 0 h after topical 1% apoEdp) was “*”. For the same compound, the “Meas'd conc.” value ([1]; OS (left eye), 0 h after topical 1% apoEdp in PBS, pooled aqueous and vitreous humor) was “*”, the “Meas'd conc.” value [1, 6] was “*” and the Total [1, 6] was “*”. The “Meas'd conc.” value [1, 7] was 0.004 µg/mL, the Total [1, 7] was 3.89 ng and the “Meas'd conc.” value [1, 8] was 0.058 µg/mL. The Total [1, 8] was 58.08 ng, the “Detection of topically-applied apoEdp inside the eye (cornea penetration)” value ([1]; topical 1% apoEdp) was “detected inside the eye in as little as one hour after application” and the “Upregulation of LRP-1” value (LRP-1) was “inhibiting the upregulation”. The “Loss of occludin protein in retina” value (occludin; 1% apoEdp eye drop 4 times a day) was “significantly attenuated the loss” and the “Loss of occludin protein in retina” value (occludin; i/p injection 40 mg/kg daily) was “significantly attenuated the loss”.
